Reference: US9820972B2, “Antiviral compounds highly effective as HCV-NS5A inhibitor” (priority 2013, dated 2017)
Read-outs that look alike come from different tables or passages of the source.

System: GT-1a of NS5A Replicon
Experiment: HCV double reporter gene (Renilla luciferase) replicon assay, GT-1a
Type: cell-based, Hepatitis C virus (HCV)
Details: read-out: EC50 For GT-1a of NS5A Replicon
Procedure: Antiviral Assay for Inhibition Activity (EC50):
The study is completed by a new constructed double reporter genes replicon assay system, the capacity of viral replicon in infected cell is determined by detecting the reporter gene Renilla luciferase. The relationship of reporter genes, HCV RNA replicon and viral proteins is well linear. 8 gradient concentrations for 2-fold dilution, 3 wells, 3 times repetition and 1 or 2 control drugs are set to finally determine EC50 of compound.
THF was distilled from sodium metal and benzophenone. DCM, pentane and hexane were distilled form calcium hydride. Special raw material and intermediate in the invention were ordered by contract synthesis from Zannan SciTech Co., Let in China, others reagents were purchased from Shanghai reagent company, Aldrich, Acros etc. As intermediates or products during the synthesis is not required for the reaction and other tests the next step, the synthesis is repeated until a sufficient number of times. The invention of the prepared compounds of […] (HCV NS5A) inhibitory activity test was performed by CRO service units such as WuXi AppTec etc.

[1] = Hepatitis C virus, GT1A, GT-1a replicon, class symbols

`COC(=O)N[C@H](C(=O)N1C[C@H](OC(=O)N2Cc3ccc4c(c3C2)OCO4)C[C@H]1c1nc(-c2ccc(-c3ccc(-c4cnc([C@@H]5C[C@@H](OC(=O)N6Cc7ccc8c(c7C6)OCO8)CN5C(=O)[C@@H](NC(=O)OC)C(C)C)[nH]4)cc3)cc2)c[nH]1)C(C)C` [Compound 6e] was tested, and the EC50 (Hepatitis C virus, GT1A) was greater than 50000 pM.
In the case of `COC(=O)N[C@H](C(=O)N1CC(OC(=O)N2Cc3cc4c(cc3C2)OCO4)CC1c1nc2cc(-c3ccc4c(c3)C(F)(F)c3cc(-c5c[nH]c([C@@H]6CCCN6C(=O)[C@@H](NC(=O)OC)C(C)C)n5)ccc3-4)ccc2[nH]1)C(C)C` (some centres unmarked) [Compound 6br], the EC50 [1] is reported as 1 to 999 pM.
`COC(=O)N[C@H](C(=O)N1CN(C(=O)N2Cc3cccc(Cl)c3C2)CC1c1nc(-c2ccc(-c3ccc(-c4c[nH]c([C@@H]5CCCN5C(=O)[C@@H](NC(=O)OC)C(C)C)n4)cc3)cc2)c[nH]1)C(C)C` (some centres unmarked) [Compound 6at] showed an EC50 [1] of 1 to 999 pM.
For `COC(=O)N[C@H](C(=O)N1CCC[C@H]1c1nc(-c2csc3c(-c4ccc(-c5cnc(C6C=CCN6C(=O)[C@H](NC(=O)OC)c6ccccc6)[nH]5)cc4)csc23)c[nH]1)C(C)C` (some centres unmarked) [Compound 6fr], the EC50 [1] was 1 to 999 pM.
`COC(=O)N[C@H](C(=O)N1CN(C(=O)N2Cc3cccc(F)c3C2)CC1c1nc(-c2ccc(-c3ccc(-c4c[nH]c([C@@H]5CCCN5C(=O)[C@@H](NC(=O)OC)C(C)C)n4)cc3)cc2)c[nH]1)C(C)C` (some centres unmarked) [Compound 6ar] was tested, and the EC50 [1] was 1 to 999 pM.
`COC(=O)N[C@H](C(=O)N1CN(C(=O)N2Cc3ccc(F)cc3C2)CC1c1nc(-c2ccc(-c3ccc(-c4c[nH]c([C@@H]5CCCN5C(=O)[C@@H](NC(=O)OC)C(C)C)n4)cc3)cc2)c[nH]1)C(C)C` (some centres unmarked) [Compound 6as] gave an EC50 [1] of 1 to 999 pM.
For `COC(=O)N[C@H](C(=O)N1CC=CC1c1nc(-c2ccc(-c3ccc(-c4c[nH]c([C@@H]5CCCN5C(=O)C5(NC(=O)OC)CCCCC5)n4)cc3)cc2)c[nH]1)C(C)C` (some centres unmarked) [Compound 6bj], the EC50 [1] was 1 to 999 pM.
Work on `COC(=O)N[C@@H](C(=O)N1CC=C[C@H]1c1ncc(-c2ccc(-c3cc4sc(-c5cnc([C@@H]6CCCN6C(=O)[C@H](NC(=O)OC)c6ccccc6)[nH]5)cc4[nH]3)cc2)[nH]1)c1ccccc1` [Compound 6fx] yielded an EC50 [1] of 1 to 999 pM.
For `COC(=O)N[C@H](C(=O)N1CC=C[C@H]1c1ncc(-c2ccc(-c3ccc(-c4cnc([C@@H]5CCCN5C(=O)[C@@H](NC(=O)OC)C5CCCCC5)[nH]4)cc3)cc2)[nH]1)C1CCCCC1` [Compound 6dk], the EC50 [1] was 1 to 999 pM.
`COC(=O)N[C@H](C(=O)N1C[C@@H](OC(=O)N2Cc3cc4c(cc3C2)OCO4)CC1c1nc(-c2ccc(-c3ccc(-c4c[nH]c([C@@H]5CCCCN5C(=O)[C@@H](NC(=O)OC)C(C)C)n4)cc3)cc2)c[nH]1)C(C)C` (some centres unmarked) [Compound 6ac] gave an EC50 [1] of 1 to 999 pM.
With `CN(C)C(=O)N[C@@H](C(=O)N1CC=CC1c1nc(-c2ccc(-c3ccc(-c4c[nH]c(C5CCCN5C(=O)[C@H](NC(=O)N(C)C)c5ccccc5)n4)cc3)cc2)c[nH]1)c1ccccc1` (some centres unmarked) [Compound 6ce] the EC50 [1] was 1 to 999 pM.
With `CNC(=O)NC(C(=O)N1CC=C[C@H]1c1nc(-c2ccc(-c3ccc(-c4c[nH]c(C5CCCN5C(=O)[C@@H](NC(=O)NC)C(C)C)n4)cc3)cc2)c[nH]1)C(C)C` (some centres unmarked) [Compound 6ch] the EC50 (GT-1a replicon, class symbols) was 1 to 999 pM.
In the case of `COC(=O)N[C@H](C(=O)N1CC=C[C@H]1c1nc(-c2ccc(-c3ccc(-c4cnc([C@@H]5CC6(CN5C(=O)[C@@H](NC(=O)OC)C(C)C)OCCO6)[nH]4)cc3)cc2)c[nH]1)C(C)C` [Compound 6dt], the EC50 [1] is reported as 1 to 999 pM.
Work on `COC(=O)N[C@H](C(=O)N1CCCC1c1nc(-c2ccc(-c3ccc(-c4c[nH]c([C@@H]5CCCN5C(=O)C5(NC(=O)OC)CCCCC5)n4)cc3)cc2)c[nH]1)C(C)C` (some centres unmarked) [Compound 6aa] yielded an EC50 [1] of 1 to 999 pM.
For `CC(C)[C@H](NC(=O)OC(C)(C)C)C(=O)N1CCC[C@H]1c1nc(-c2ccc(-c3ccc(-c4cnc([C@@H]5C[C@@H](OC(=O)N6Cc7ccc8c(c7C6)OCO8)CN5C(=O)[C@@H](NC(=O)OC(C)(C)C)C(C)C)[nH]4)cc3)cc2)c[nH]1` [Compound 6b], the EC50 [1] was greater than 50000 pM.
Work on `COC(=O)N[C@H](C(=O)N1CCC[C@H]1c1nc(-c2ccc(-c3ccc(-c4cnc([C@@H]5C[C@@H](OC(=O)N6Cc7cccc(F)c7C6)CN5C(=O)[C@@H](NC(=O)OC)C(C)C)[nH]4)cc3)cc2)c[nH]1)C(C)C` [Compound 6s] yielded an EC50 [1] of 1 to 999 pM.
`COC(=O)NC(C(=O)N1CC=C[C@H]1c1ncc(-c2ccc(-c3ccc(-c4cnc([C@@H]5CCCN5C(=O)[C@@H](NC(=O)OC)C(C)C)[nH]4)cc3)cc2)[nH]1)C1CCCCC1` (some centres unmarked) [Compound 6dj] showed an EC50 (GT-1a replicon, class symbols) of 1000 to 49900 pM.
With `COC(=O)N[C@H](C(=O)N1CC=C[C@H]1c1ncc(-c2ccc(-c3ccc(-c4cnc([C@@H]5CN(S(=O)(=O)C6CC6)CN5C(=O)[C@@H](NC(=O)OC)C(C)C)[nH]4)cc3)cc2)[nH]1)C(C)C` [Compound 6da] the EC50 [1] was 1 to 999 pM.
In the case of `COC(=O)N[C@H](C(=O)N1CN(C(=O)N2Cc3cc4c(cc3C2)OCO4)C[C@H]1c1ncc(-c2ccc(-c3cccc4c(-c5cnc([C@@H]6CCCN6C(=O)[C@@H](NC(=O)OC)C(C)C)[nH]5)cccc34)cc2)[nH]1)C(C)C` [Compound 6bv], the EC50 [1] is reported as greater than 50000 pM.
`COC(=O)N[C@H](C(=O)N1C[C@@H](OC(=O)N2Cc3cc4c(cc3C2)OCO4)CC1c1nc(-c2ccc(-c3ccc(-c4c[nH]c([C@@H]5COCCN5C(=O)[C@@H](NC(=O)OC)C(C)C)n4)cc3)cc2)c[nH]1)C(C)C` (some centres unmarked) [Compound 6ah] showed an EC50 [1] of 1 to 999 pM.
Work on `COC(=O)N[C@H](C(=O)N1CCCC1c1nc2cc(-c3ccc4c(c3)C(F)(F)c3cc(-c5c[nH]c([C@@H]6C=CCN6C(=O)[C@@H](NC(=O)OC)C(C)C)n5)ccc3-4)ccc2[nH]1)C(C)C` (some centres unmarked) [Compound 6bq] yielded an EC50 [1] of 1 to 999 pM.
Work on `COC(=O)N[C@H](C(=O)N1CCCC1c1nc(-c2ccc(-c3ccc(-c4c[nH]c([C@@H]5COCCN5C(=O)[C@@H](NC(=O)OC)C(C)C)n4)cc3)cc2)c[nH]1)C(C)C` (some centres unmarked) [Compound 6ag] yielded an EC50 [1] of 1 to 999 pM.
In the case of `COC(=O)N[C@H](C(=O)N1CCC[C@H]1c1ncc(-c2cc3sc(-c4ccc(-c5cnc([C@@H]6C=CCN6C(=O)[C@H](NC(=O)OC)c6ccccc6)[nH]5)cc4)cc3s2)[nH]1)C(C)C` [Compound 6fj], the EC50 [1] is reported as 1 to 999 pM.
`CC(C)[C@H](NC(=O)OC1CCCC1)C(=O)N1CCC[C@H]1c1nc(-c2ccc(-c3ccc(-c4cnc([C@@H]5C[C@@H](OC(=O)N6Cc7cccc(F)c7C6)CN5C(=O)[C@@H](NC(=O)OC5CCCC5)C(C)C)[nH]4)cc3)cc2)c[nH]1` [Compound 6v] showed an EC50 [1] greater than 50000 pM.
`COC(=O)N[C@H](C(=O)N1CCCC1c1nc(-c2ccc(-c3ccc(-c4c[nH]c([C@@H]5CCCCN5C(=O)[C@@H](NC(=O)OC)C(C)C)n4)cc3)cc2)c[nH]1)C(C)C` (some centres unmarked) [Compound 6ab] was tested, and the EC50 [1] was 1 to 999 pM.
For `CC(C)(C)OC(=O)N[C@H](C(=O)N1CCC[C@H]1c1nc(-c2ccc(-c3ccc(-c4cnc([C@@H]5C[C@@H](OC(=O)N6Cc7cc8c(cc7C6)OCO8)CN5C(=O)[C@@H](NC(=O)OC(C)(C)C)C(C)(C)C)[nH]4)cc3)cc2)c[nH]1)C(C)(C)C` [Compound 6k], the EC50 [1] was greater than 50000 pM.
With `CNC(=O)N[C@@H](C(=O)N1CC=CC1c1nc(-c2ccc(-c3ccc(-c4c[nH]c(C5CCCN5C(=O)[C@H](NC(=O)NC)c5ccccc5)n4)cc3)cc2)c[nH]1)c1ccccc1` (some centres unmarked) [Compound 6cf] the EC50 [1] was 1 to 999 pM.
For `COC(=O)N[C@H](C(=O)N1CC=C[C@H]1c1ncc(-c2ccc(-c3ccc(-c4cnc([C@@H]5CNCN5C(=O)[C@@H](NC(=O)OC)C(C)C)[nH]4)cc3)cc2)[nH]1)C(C)C` [Compound 6cv], the EC50 [1] was 1 to 999 pM.
`COC(=O)N[C@H](C(=O)N1CCC[C@H]1c1ncc(-c2ccc(-c3ccc(-c4cnc([C@@H]5CN(C(=O)N6Cc7ccc(OC)c(OC)c7C6)CN5C(=O)[C@@H](NC(=O)OC)C(C)C)[nH]4)cc3)cc2)[nH]1)C(C)C` [Compound 6cq] gave an EC50 [1] of 1000 to 49900 pM.
